From article PMC7931627 (ACS Central Science, 2021) come the findings set out here.

Data set [1] has as its target SARS-CoV-2 M^pro (Severe acute respiratory syndrome coronavirus 2, UniProt P0DTD1). Nature of the data set: biochemical. Particulars: for IC50: IC50, inhibition of SARS-CoV-2 Mpro, kinetic assay, 100 nM Mpro, triplicate, footnote a: fluorescence of compound interfered with assay. Format: biochemical.
The test system of data set [2] is noninfectious SARS-CoV-2 replicon. Format: cell-based. Particulars: 5 in combination with remdesivir, MacSynergy II.
In data set [3] the test system is infectious SARS-CoV-2. The data set can be described thus: MTT antiviral assay: protection against viral cytopathic effect in Vero E6 cells. Format: cell-based.
The subject of data set [4] is infectious SARS-CoV-2. Format: cell-based.
Data set [5] has as its system Vero E6 cells. Particulars: MTT, no virus.
The subject of data set [6] is normal human bronchial epithelial cells (NHBE). Particulars: MTT.

Each structure is given as a SMILES string.

As usually defined, the IC50 is the concentration that gives 50% inhibition. `N#Cc1ccccc1-c1cc(-c2cccc(Cl)c2)c(=O)n(-c2cccnc2)c1` [Compound 2] registered an IC50 in data set [1] of 9.99 ± 2.5 µM.

Turning to `O=c1[nH]cc(-c2cc(-c3cccc(Cl)c3)c(=O)n(-c3cccnc3)c2)c(=O)[nH]1` [Compound 3], the IC50 in data set [1] was 6.38 ± 1.21 µM.

With `N#Cc1ccccc1-c1cc(-c2cc(Cl)cc(Cl)c2)c(=O)n(-c2cccnc2)c1` [Compound 4], in data set [1] (4 vs 2, addition of second chlorine), the “factor of enhancement in inhibitory activity” value is listed as around 2. The IC50 in data set [1] is 4.02 ± 1.36 µM.

As to `CCCOc1cc(Cl)cc(-c2cc(-c3ccccc3C#N)cn(-c3cccnc3)c2=O)c1` [Compound 5], in data set [1] (5 over 4), the “factor of improvement in potency” value is recorded as “ca. 30”. Moreover, in data set [2], the antagonism volume is listed as 0 μM^2% and the mean synergy volume was determined as 30.8 μM^2%.

Regarding `O=c1[nH]cc(-c2cc(-c3cc(Cl)cc(OCc4ccccc4)c3)c(=O)n(-c3cccnc3)c2)c(=O)[nH]1` [Compound 14], in data set [3], the “EC50 MTT” value was “not in the MTT assay”. The “EC50 Plaque” value in data set [4] is reported as “antiviral activity was found”.

For `O=c1[nH]cc(-c2cc(-c3cc(Cl)cc(OCc4ccccc4Cl)c3)c(=O)n(-c3cccnc3)c2)c(=O)[nH]1` [Compound 21], in data set [3], the “EC50 MTT” value was “lacked antiviral activity”. Further, the “EC50 Plaque” value in data set [4] is on record as “showed activity”.

Consider `O=c1[nH]cc(-c2cc(-c3cc(Cl)c(F)c(OCc4ccccc4Cl)c3)c(=O)n(-c3cccnc3)c2)c(=O)[nH]1` [Compound 23], for which the “EC50 MTT” value in data set [3] is “lacked antiviral activity”. Also, the “EC50 Plaque” value in data set [4] is reported as “showed activity”.

For `O=c1[nH]cc(-c2cc(-c3cc(Cl)cc(OCC4CC4)c3)c(=O)n(-c3cccnc3)c2)c(=O)[nH]1` [Compound 24], the “fold boost in potency” value in data set [1] (24 vs 11, uracil series) amounted to 3.

Consider `N#Cc1ccccc1-c1cc(-c2cc(Cl)cc(OCC3CC3)c2)c(=O)n(-c2cccnc2)c1` [Compound 26], for which, in data set [5], the “CC50 Vero E6” value was “no cytotoxicity”. For the same compound, the “CC50 NHBE” value in data set [6] is listed as “no cytotoxicity”.
